Results from patent US20250002954A1, “Novel Compound, Use Thereof, and Method for Producing Same, and Compound-Containing Composition, Method for Producing 4-Trehalosamine, and Microorganism” (Microbial Chemistry Research Foundation, priority 2021, published 2025).

Columns and labels:
Assay type in all cases: cell-based
[1] = test system: human ovarian cancer cells OVK18 and human malignant melanoma cells Mewo; assay: Autophagy inducing effect on cultured cells (western blotting of autophagy-related proteins); settings: 24 hours treatment, western blotting
Protocol: Expression and phosphorylation patterns of autophagy-related proteins when human ovarian cancer cells or human malignant melanoma cells were treated with 4-trehalosamine and trehalose analog for 24 hours were determined by western blotting.
Human ovarian cancer cells OVK18 (obtained from RIKEN BRC) and human malignant melanoma cells Mewo (JCRB0066) were each inoculated on a 12-well microplate at 8×10^4 cells/mL/well and cultured in DMEM culture medium at 37° C. for 72 hours, after which they were treated with test samples.
The test samples used were the 4-trehalosamine (4TA) obtained in the <Purification process> of production example 10, trehalose (TRH), the IMCTA-Cn compounds obtained in synthesis examples 1 to 8, trehalose ester (TRH-Cn) (manufactured by Dojindo Laboratories), n-dodecyl-β-D-maltoside (DDM), maltose (MLT), sucrose (SCR), and rapamycin (RM). Untreated cells without addition of compounds were used as control.
In treatment with the test samples, in order to avoid contact of a compound with locally high concentration with cells, a half of the culture fluid in each well was taken, and a required amount of test sample was dissolved in it. After dissolving it sufficiently, it was returned to the original well and treated at 37° C. for 24 hours.
Subsequently, culture medium containing the test samples was removed, washed once with PBS, and dissolved with 2×SDS sample buffer not containing 2-mercaptoethanol (2-ME) or bromphenol blue (BPB). After measuring the protein concentration in the dissolved sample with a BCA protein assay kit (manufactured by Thermo Fisher Scientific), 2-ME and BPB were added and the sample was boiled for 5 minutes, which was used as a sample for western blotting.
The western blotting was performed in a similar manner to test example 4 except that anti-LC3 antibody, which is a marker for autophagy, anti-p62, anti-cathepsin D antibody, anti-Phospho-Akt (Ser473) antibody, anti-Akt antibody, anti-Phospho-p70 S6K (T389) antibody, and anti-p70 S6K antibody (all manufactured by Cell Signaling Technology) were used at 1/2,000 dilution as the primary antibodies in the method described in test example 4.
The results for human ovarian cancer cells OVK18 are shown in FIGS. 20A to 20C, and the results for human malignant melanoma cells Mewo are shown in FIGS. 20D to 20F. In FIGS. 20A, 20B, 20D, and 20E, “PCD” denotes precursors of cathepsin D and “CD-HC” denotes cathepsin D heavy chain.

[2] = test system: human ovarian cancer cells OVK18 and human malignant melanoma cells Mewo; assay: LC3-II expression in combination with autophagy inhibitor (bafilomycin or chloroquine); settings: 50 mM 4-trehalosamine, 50 μM IMCTA-C14 or 100 mM trehalose 14 hours, then 200 nM BM or 100 μM CQ 4 hours
Protocol: As with the test example 10-1, human ovarian cancer cells OVK18 (obtained from RIKEN BRC) and human malignant melanoma cells Mewo (JCRB0066) were each inoculated on a 12-well microplate at 8×10^4 cells/mL/well, and cultured in DMEM culture medium at 37° C. for 72 hours. After that, a half of the culture fluid in each well was taken and each compound was dissolved so that the final concentration is 50 mM 4-trehalosamine, 50 μM IMCTA-C14, or 100 mM trehalose. After dissolving it sufficiently, the cells were returned to the original well and treated at 37° C. for 14 hours. Untreated cells without addition of the compounds were used as control.
After that, each autophagy inhibitor was added so that the final concentration is 200 nM bafilomycin (BM) or 100 μM chloroquine (CQ), and the cells were cultured at 37° C. for 4 hours. A group with no inhibitor added was cultured in a similar way. After culture, they were turned into samples for western blotting in a similar manner to test example 10-1.
The western blotting was performed in a similar manner to test example 4 except that anti-LC3 antibody (manufactured by Cell Signaling Technology) was used at 1/2,000 dilution as the primary antibody in the method described in test example 4. The results for human ovarian cancer cells OVK18 are shown in FIG. 21A, and the results for human malignant melanoma cells Mewo are shown in FIG. 21B.
Also, the results (graphs) of image analysis on the results of western blotting via Image J (manufactured by National Institutes of Health) are shown in FIGS. 21A and 21B (n=10, mean±S.D.). The vertical axis of the graph indicates the value of the amount of expression (expression amount ratio) of LC3-II for the groups with the different compounds added when the amount of expression of LC3-II in the control (untreated cells) is 1. […]

Bacillus subtilis 168 = assay: Evaluation of Bacillus subtilis protective activity in freeze-dried condition; settings: for Numbers of live bacterial cells (relative numbers): Bacillus subtilis freeze-dried with 6% aqueous solution (final concentration 3%), test sample 3 (FD) = 1
Protocol: Using test samples 1 to 5 containing Bacillus subtilis prepared in the following manner, microorganism-protective activity with trehalose or 4-trehalosamine in a freeze-dried condition was evaluated.
Frozen stock of Bacillus subtilis (Bacillus subtilis 168 (obtained from ATCC)) was inoculated in 10 mL of Luria-Bertani (LB) culture medium (manufactured by Difco) and cultured at 37° C. for 24 hours while shaking it at 220 rpm. After culture, it was centrifuged at 3,000×g for 5 minutes, washed once with 10 mL of water, and then suspended in 10 mL of water, thus obtaining Bacillus subtilis suspension. 50 μL of water was added to and mixed with 50 μL of this Bacillus subtilis suspension, and the mixture was left to stand at 4° C. for 20 hours, preparing control (NF).
After Bacillus subtilis suspension was prepared in a similar manner to test sample 1, 50 μL of 6% aqueous solution of trehalose was added to and mixed with 50 µL of the Bacillus subtilis suspension, and the mixture was frozen at −80° C. for 10 minutes. It was then freeze-dried for 20 hours with a freeze dryer (FLEXI-DRY, manufactured by FTS systems INC., Warminster) connected to a vacuum pump (P65D, manufactured by PHIL Sato Vac INC.), preparing freeze-dried product (TRH) of Bacillus subtilis with TRH.
Freeze-dried product (4TA) of Bacillus subtilis with 4TA was obtained in a similar manner to the preparation method of test sample 4 except that trehalose was changed to 4-trehalosamine (4TA) in the preparation method of test sample 4.
For test samples 1 and 2, serial suspensions were made by diluting them to 1/10 with water. 100 μL of water was added to each of the freeze-dried products of test samples 3 to 5 and diluted to 1/10 with water to make their serial suspensions. […]
Wells in which the number of colonies was measurable were selected and the numbers (relative numbers) of live bacterial cells per well on test samples 1, 2, 4, and 5 when the number of live bacterial cells per well on test sample 3 (FD) was “1” were calculated in consideration of the dilution concentrations of those test samples.

SMILES	expression of LC3-II (autophagy marker) [1]	expression of LC3-II in combination with bafilomycin (BM) or chloroquine (CQ) [2]	Numbers of live bacterial cells (relative numbers) (Bacillus subtilis 168)	protective effect on microorganisms, comparison (Bacillus subtilis 168; Bacillus subtilis, freeze-dried)
N[C@H]1[C@H](O)[C@@H](O)[C@@H](O[C@H]2O[C@H](CO)[C@@H](O)[C@H](O)[C@H]2O)O[C@@H]1CO [4-trehalosamine]	elevated expression of LC3-II	increased expression of LC3-II	100	stronger than when trehalose was added
OC[C@H]1O[C@@](CO)(O[C@H]2O[C@H](CO)[C@@H](O)[C@H](O)[C@H]2O)[C@@H](O)[C@@H]1O [sucrose]	expression of LC3-II was also observed	–	–	–
OC[C@H]1O[C@H](O[C@H]2O[C@H](CO)[C@@H](O)[C@H](O)[C@H]2O)[C@H](O)[C@@H](O)[C@@H]1O [trehalose, reference compound]	–	increased expression of LC3-II	10	–
